From patent US8003692B2 (priority 2007, dated 2011) come the findings set out here.

“And” between values parts separate entries of the source, which are not always exact repeats. Equal entries are not always repeated. “Also recorded” adds a separate entry of the source. Where two headings read alike, the source gives them in different places.

Series [1] concerns the target anthrax edema factor (EF) (Bacillus anthracis, UniProt P40136). In words: cell-based.
A further series deals with cholera toxin. Type of series: cell-based, Vibrio cholerae.
Another series has as its system Cholera toxin (CT). The settings on record: mouse, in vivo.
Series [2] concerns bacterial adhesion to HeLa cells. Type of series: cell-based.
Series [3] relates to ETEC H10507 or other enteric bacteria. Type of series: cell-based, E. coli and Salmonella.
For series [4], the system named is Enterotoxigenic E. coli (ETEC). The settings on record: mouse, in vivo.
The next series can be described thus: physchem. The settings on record: organic solvent or mixture.
Series [5] relates to bacterial adhesion to Caco-2 cells. Type of series: cell-based.

As a reminder, the solubility is how much of the substance goes into solution per volume.

anthrax edema factor (EF), sequence (P40136 whole entry, looked up): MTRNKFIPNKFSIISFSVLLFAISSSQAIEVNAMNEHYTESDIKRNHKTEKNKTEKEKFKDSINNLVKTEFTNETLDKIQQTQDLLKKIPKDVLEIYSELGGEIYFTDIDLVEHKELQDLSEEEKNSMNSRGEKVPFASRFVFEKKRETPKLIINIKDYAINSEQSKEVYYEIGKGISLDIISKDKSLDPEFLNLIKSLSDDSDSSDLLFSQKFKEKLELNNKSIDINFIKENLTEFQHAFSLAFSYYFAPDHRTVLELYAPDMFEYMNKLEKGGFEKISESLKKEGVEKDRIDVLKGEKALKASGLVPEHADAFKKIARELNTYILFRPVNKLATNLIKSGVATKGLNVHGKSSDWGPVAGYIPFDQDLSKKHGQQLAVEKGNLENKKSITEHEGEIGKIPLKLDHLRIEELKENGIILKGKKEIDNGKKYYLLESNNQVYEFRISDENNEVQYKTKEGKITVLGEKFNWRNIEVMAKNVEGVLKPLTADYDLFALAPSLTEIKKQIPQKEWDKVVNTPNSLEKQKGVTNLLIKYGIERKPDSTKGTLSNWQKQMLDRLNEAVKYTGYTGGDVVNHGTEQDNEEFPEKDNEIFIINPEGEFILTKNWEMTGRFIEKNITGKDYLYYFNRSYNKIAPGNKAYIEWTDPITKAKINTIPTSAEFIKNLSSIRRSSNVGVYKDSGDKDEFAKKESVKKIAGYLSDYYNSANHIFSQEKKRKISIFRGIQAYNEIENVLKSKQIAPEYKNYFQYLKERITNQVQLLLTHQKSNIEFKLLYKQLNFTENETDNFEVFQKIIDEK

On to `COc1cccc(C2=CC(=O)CCC2)c1` [FI-15, 3-(3-Methoxy-phenyl)-cyclohex-2-enone], for which, in series [1] (read-out: IC-50), the IC50 turned out to be 30 µM.

Regarding `N#Cc1ccc(NC(=O)c2cccc3c2C(=O)c2ccccc2-3)c(Cl)c1` [FIV-70, 9-Oxo-9H-fluorene-1-carboxylic acid (2-chloro-4-cyano-phenyl)-amide], the IC50 in series [1] (IC50) stood at 50 µM.

In [1] (IC50), `O=C(O)c1cccc(NC(=O)c2cccc3c2C(=O)c2ccccc2-3)c1O` [FIV-39, 2-Hydroxy-3-[(9-oxo-9H-fluorene-1-carbonyl)-amino]-benzoic acid] returned an IC50 of 5.6 µM.

With `O=C1C=C(c2ccc3c(c2)OCO3)CCC1` [FI-18, 3-Benzo[1,3]dioxol-5-yl-cyclohex-2-enone], in [1] (read-out: IC-50), the IC50 was determined as 53 µM.

As for `COc1cccc(C2=CC(=O)CC(c3ccco3)C2)c1` (centres unmarked) [FI-1, 5-Furan-2-yl-3-(3-methoxy-phenyl)-cyclohex-2-enone], the “inhibition of EF / Edema Toxin induced cAMP production (in words)” value in series [1] was “did not inhibit”. Further, in series [1] (IC50), the IC50 was 20 µM. In addition, the IC50 in series [1] (Selected assay results (IC50)) was 20.4 µM and > 100 µM. In addition, the “inhibition of cholera toxin induced cAMP (in words)” value in the series on cholera toxin is listed as “did not inhibit”. The “toxic effects in the animals (in words)” value in the series on Cholera toxin (CT) (Swiss-Webster) was “toxic effects similar to FI-2”. Moreover, in the series on Cholera toxin (CT), the “Reduction of fluid accumulation” value is “No”, the Toxicity result was “Yes” and the “accumulation of intestinal fluid after experimental infection with CT (in words)” value was “did not cause a reduction in fluid accumulation”.

For `COc1cccc(C2=C(C)C(=O)CC2)n1` [FI-21, 3-(6-Methoxy-pyridin-2-yl)-2-methyl-cyclopent-2-enone], the “inhibition of EF / Edema Toxin induced cAMP production (in words)” value in [1] is on record as “good activity”. Also, in [1] (read-out: IC-50), the IC50 came to 30 µM.

As to `Cc1c(NC(=O)c2cccc3c2C(=O)c2ccccc2-3)cccc1C(=O)O` [FIV-55, 2-Methyl-3-[(9-oxo-9H-fluorene-1-carbonyl)-amino]-benzoic acid], in series [1] (IC50), the IC50 was 11.4 µM.

Take `COC(=O)c1cccc(NC(=O)c2cccc3c2C(=O)c2ccccc2-3)c1C` [FIV-54, 2-Methyl-3-[(9-oxo-9H-fluorene-1-carbonyl)-amino]-benzoic acid methyl ester]: the IC50 in series [1] (IC50) amounted to 12.9 µM.

For the molecule `COc1ccc(C(=O)O)cc1NC(=O)c1cccc2c1C(=O)c1ccccc1-2` [FIV-1, 4-Methoxy-3-[(9-oxo-9H-fluorene-1-carbonyl)-amino]-benzoic acid], the IC50 in [1] (IC50) came to 5.8 µM.

In turn, `N=C(N)c1cccc(NC(=O)c2cccc3c2C(=O)c2ccccc2-3)c1` [FIV-68, 9-Oxo-9H-fluorene-1-carboxylic acid (3-carbamimidoyl-phenyl)-amide] came in with an IC50 in series [1] (IC50) of 2.71 µM.

Consider `O=C(Nc1ccc(F)c(Cl)c1)c1cccc2c1C(=O)c1ccccc1-2` [FIV-60, 9-Oxo-9H-fluorene-1-carboxylic acid (3-chloro-4-fluoro-phenyl)-amide], for which, in [1] (IC50), the IC50 is 3.8 µM.

Take `COc1ccccc1C1=CC(=O)CCC1` [FI-27, 3-(2-Methoxy-phenyl)-cyclohex-2-enone]: the IC50 in series [1] (read-out: IC-50) worked out at 35 µM.

Turning to `O=C(O)c1cccc(NC(=O)c2cccc3c2C(=O)c2ccccc2-3)c1` [FIV-50, 3-[(9-Oxo-9H-fluorene-1-carbonyl)-amino]-benzoic acid], the entries for the “effect on bacterial adherence (in words)” value in series [2] and in [5] were “Reduction in adherence was only observed in ETEC” and “no reduction in adherence”, respectively. The “inhibition of EF / Edema Toxin induced cAMP production (in words)” value in series [1] was “extremely effective; also recorded: more active than PGE2-imidazole”. Moreover, the IC50 is 1.7 to 9 µM in series [1] (IC50); 1.7 to 5 µM in [1] (IC50 values); 4.74 µM in [1] (IC50 values, mean); 0.291 to 12.3 µM in [1] (IC50 values, range). Moreover, the “effect on bacterial growth rate (in words)” value in [3] was “no effect on growth”. Further, the “cytotoxicity in LDH assay (in words)” value in the series with RAW 264.7 cells was “no obvious cytotoxic effect”. For the same molecule, the “Reduction of fluid accumulation” value in the series with Cholera toxin (CT) is reported as “Yes”. In addition, the Toxicity result in the series on Cholera toxin (CT) is “No”. The “differences in the number of bacteria recovered” value in series [4] was 3 logs. For the same molecule, in the series “physchem”, the solubility is at least 100 mM.

As for `O=C(O)c1ccc(/N=C/c2c3ccccc3cc3ccccc23)cc1O` [FIII-1, 4-[(Anthracen-9-ylmethylene)-amino]-2-hydroxy-benzoic acid], the “inhibition of EF / Edema Toxin induced cAMP production (in words)” value in series [1] is “more active than PGE2-imidazole”. In addition, the IC50 in series [1] (read-out: IC50 values) is 9 µM.

As to `O=C1C=C(c2ccc3[nH]ccc3c2)CCC1` [FI-17, 3-(1H-Indol-5-yl)-cyclohex-2-enone], in [1], the “inhibition of EF / Edema Toxin induced cAMP production (in words)” value was “comparable activity to the best compounds”. In addition, in [1] (read-out: IC-50), the IC50 came out at 56 µM.

As for `O=C(Nc1cccc(OC(F)(F)F)c1)c1cccc2c1C(=O)c1ccccc1-2` [FIV-67, 9-Oxo-9H-fluorene-1-carboxylic acid (3-trifluoromethoxy-phenyl)-amide], in series [1] (IC50), the IC50 is 6.9 µM.

As for `COc1ccc(C2=C(C)C(=O)CC2)cn1` [FI-14, 3-(6-Methoxy-pyridin-3-yl)-2-methyl-cyclopent-2-enone], the “inhibition of EF / Edema Toxin induced cAMP production (in words)” value in series [1] is listed as “good activity”. Moreover, the IC50 in [1] (read-out: IC-50) is 24 µM.

In turn, `COC(=O)c1ccc(OC)c(NC(=O)c2cccc3c2C(=O)c2ccccc2-3)c1` [FIV-58, 4-Methoxy-3-[(9-oxo-9H-fluorene-1-carbonyl)-amino]-benzoic acid methyl ester] yielded an IC50 in [1] (IC50) of 7.2 µM.

Regarding `COc1cccc([C@H]2Nc3ccc(C(=O)O)cc3[C@@H]3C=CC[C@H]23)c1` (stereo in doubt) [FII-1, 4-(3-methoxy-phenyl)-3a,4,5,9b-tetrahydro-3H-cyclopenta[c]quinoline-8-carboxylic acid], the “inhibition of EF / Edema Toxin induced cAMP production (in words)” value in series [1] is listed as “effective; also recorded: more active than PGE2-imidazole”. Moreover, the IC50 in series [1] (IC50 values) fell in the range of 1.8 to 7 µM. The “cytotoxicity in LDH assay (in words)” value in the series on RAW 264.7 cells is on record as “no obvious cytotoxic effect”. Also, in the series on Cholera toxin (CT), the “Reduction of fluid accumulation” value is “No*”, the Toxicity result is on record as “No”, the “accumulation of intestinal fluid after experimental infection with CT (in words)” value was “did not cause a significant reduction in fluid accumulation” and the “toxic effects in the animals (in words)” value is on record as “Toxic effects were observed”.

On to `COc1cccc(C2=CC(=O)CC(c3ccc(F)cc3)C2)c1` (centres unmarked) [FI-2, 5-(4-Fluoro-phenyl)-3-(3-methoxy-phenyl)-cyclohex-2-enone], for which the “inhibition of EF / Edema Toxin induced cAMP production (in words)” value in series [1] is listed as “cAMP inhibitory activity”. In series [1] (IC50), this molecule had an IC50 of 28 µM. The IC50 in series [1] (Selected assay results (IC50)) was 21.4 µM and 27.3 µM. Moreover, the “cytotoxicity in LDH assay (in words)” value with RAW 264.7 cells is “minimal cytotoxic effect”. Further, the “toxic effects in the animals (in words)” value in the series on Cholera toxin (CT) (Swiss-Webster) was “number of animals surviving the full 6 hour of the incubation was reduced by half”. Also, in the series with Cholera toxin (CT), the “Reduction of fluid accumulation” value is recorded as “Yes”, the Toxicity result is on record as “No” and the “toxic effects in the animals (in words)” value is on record as “highly toxic”.

For `O=C(O)c1cc(NC(=O)c2cccc3c2C(=O)c2ccccc2-3)ccc1O` [FIV-35, 2-Hydroxy-5-[(9-oxo-9H-fluorene-1-carbonyl)-amino]-benzoic acid], the IC50 in series [1] (IC50) was 6.2 µM.

On to `O=C(Nc1ccccc1)c1cccc2c1C(=O)c1ccccc1-2` [FIV-61, 9-Oxo-9H-fluorene-1-carboxylic acid phenylamide], for which, in series [1] (IC50), the IC50 is 28.6 µM.

Regarding `COc1cccc(C2=C(C)C(=O)CC2)n1` [FI-3, 3-(6-Methoxy-pyridin-2-yl)-2-methyl-cyclopent-2-enone], the “inhibition of EF / Edema Toxin induced cAMP production (in words)” value in series [1] is “most consistently been active; also recorded: dose-dependent activity and reduced extracellular cAMP accumulation”. For the same molecule, the IC50 in series [1] (Selected assay results (IC50)) was 38.8 µM and 64.1 µM and 11.1 µM and 29.4 µM; in [1] (read-out: IC50), 30 µM; in [1] (read-out: Selected assay results (IC50)), 29.9 µM. Besides, the “inhibition of cholera toxin induced cAMP (in words)” value in the series on cholera toxin is reported as “most consistently been active; also recorded: inhibits cholera toxin induced cAMP, but not quite as well as PGE2-imidazole”. Besides, the “toxic effects in the animals (in words)” value in the series with Cholera toxin (CT) (Swiss-Webster) is “several animals treated with the CT+FI-3 mixture died”; in the series on Cholera toxin (CT), “displayed edema, blood and fluid accumulation”. Also, the “Reduction of fluid accumulation” value with Cholera toxin (CT) is given as “Yes”.

`COc1cccc(C2=CC(=O)CCC2)n1` [FI-9, 3-(6-Methoxy-pyridin-2-yl)-cyclohex-2-enone]: the “inhibition of EF / Edema Toxin induced cAMP production (in words)” value in [1] is “not active”.

Regarding `CN(C)c1cccc(NC(=O)c2cccc3c2C(=O)c2ccccc2-3)c1` [FIV-65, 9-Oxo-9H-fluorene-1-carboxylic acid (3-dimethylamino-phenyl)-amide], in series [1] (IC50), the IC50 stood at 1.5 µM.
